According to US9915650B2, “Method of detection of cAMP and cGMP via a fluorophore and dequencher complex” (HOFFMANN-LA-ROCHE INC., priority 2006, dated 2018):
Values joined by “and” are separate entries in the source; they are usually repeats but may differ in a detail not shown here. Identical values can stand only once. “Also recorded” adds a separate entry of the source. Like-named read-outs stand apart in the source and are kept apart here.

Columns and labels:
[1] = Quenching of free MR121 fluorescence by cyclic nucleotides and cAMP derivates (Stern-Volmer plot); type: binding; conditions: for association constant, Ks, with MR121 / quenching of MR121 (decrease of fluorescence intensity, fluorescence lifetime): 20 nM MR121 in PBS, 30 min RT; for association constant, Ks, with MR121: calculated from linear region (up to 3.2 mM) of I0/I plot; for quenching of MR121 (decrease of fluorescence intensity, fluorescence lifetime): quencher 0-12.8 mM; for quenching of MR121 in low concentrations: concentrations up to 10 μM (range of cellular concentrations)
Protocol: The fluorescent intensity was adjusted to about 60% of the maximal signal of the employed iCCD camera by using attenuation filters and varying exposure times.
(§1) Fluorescence and lifetime were measured after an incubation time of 30 minutes at RT.
In order to analyze the quenching mechanism, measurements of fluorescence intensity and fluorescence lifetime of free MR121 as a function of different molecules (Trp, cAMP, 2-AHA-cAMP, 8-AHA-cAMP, 8-ADOA-cAMP, 2′-AEC-cAMP, N-6-Aminohexyl-cAMP, 8-MBT-cAMP and 8-OH-cAMP, see FIG. 4, 5) were carried out.
as §1
In FIG. 5 the change in fluorescence intensity (I0/I) is plotted for all cAMP derivatives investigated.

[2] = Quenching of ATTO655 by 8-AHA-cAMP (Stern-Vollmer plot); type: binding; conditions: 20 nM ATTO655 in PBS, 30 min RT; linear region (up to 3.2 mM)
Protocol: (§2) All fluorescence intensity measurements were carried out by means of a plate:vision fluorescence reader (Evotec Technologies GmbH, Schnackenburgallee 114, D-22525 Hamburg, Germany) equipped with a high pressure Xe arc lamp using for the measurements with MR121 an excitation filter at 630 nm (bandwidth 50 nm) and an emission filter at 695 nm (bandwidth 55 nm) and for the measurements with Atto 700 an excitation filter at 655 nm (bandwidth 50 nm) and an emission filter at 710 nm (bandwidth 40 nm). The fluorescent intensity was adjusted to about 60% of the maximal signal of the employed iCCD camera by using attenuation filters and varying exposure times. The lifetime measurements were performed by means of a plate:vision TRF reader (Evotec Technologies GmbH, Schnackenburgallee 114, D-22525 Hamburg, Germany) with an OPO system as light source (GWU Lasertechnik Vertriebsgesellschaft m.b.H., 50374 Erftstadt, Germany) tuned to 630 nm for excitation and the emission filter at 695 nm.
(§3) 20 μl ATTO590 and ATTO655 respectively (in PBS, end concentration 20 nM) and 20 μl quencher (8-AHA-cAMP) in PBS (DMSO end concentration in the assay: 1.25%) were pipetted into a microtiter plate. Fluorescence and lifetime were measured after an incubation time of 30 minutes at RT. […] The association constant, Ks, was calculated from the linear region (up to 3.2 mM) of the plot.

[3] = Quenching of ATTO590 by 8-AHA-cAMP (Stern-Vollmer plot); type: binding; conditions: 20 nM ATTO590 in PBS, 30 min RT; linear region (up to 3.2 mM)
Protocol: as §2, §3

[4] = Solubility seen in the quenching plot (FIG. 5); type: physicochemical; conditions: above ˜5 mM, PBS, deviation from linearity of I0/I plot
Description: I0/I: change in fluorescence intensity

[5] = target: anti-cAMP antibody; test: cAMP/cGMP standard curves: displacement of tracer from anti-cAMP antibody, fluorescence readout; type: binding, mouse
[6] = test system: CHO-K1 cells; test: cAMP cellular assay, forskolin dose response curve; type: cell-based; conditions: Cricetulus griseus, 0.5 h; CHO-K1, 10,000 cells/well, 1 mM IBMX, 30 min at 37° C.
Protocol: Cell numbers from 2, 500 to 20, 000 cell/well were plated in 25 μl medium and incubated for 20 h at 37° C. The medium was removed and after adding 10 μl of PBS with 0.1% BSA and 1 mM IBMX the cells were incubated for 60 minutes at 37° C. 10 μl of forskolin dilutions in PBS+0.1% BSA+1 mM IBMX from 0.01 to 300 μM (final concentration in 20 μl assay volume) were added and incubated for another 30 minutes at 37° C.

[7] = literature value for tryptophane; cited from earlier work
[8] = 20 nM MR121-2-AHA-cAMP tracer, 40 nM antibody, without cells (FIG. 14), read-out: IC50, comparison of standard curves for cAMP and cGMP

NCCCCCCNc1nc(N)c2ncn([C@@H]3O[C@@H]4COP(=O)(O)O[C@H]4[C@H]3O)c2n1 [2-AHA-cAMP, 2-(6-Aminohexyl)amino-cAMP]
association constant, Ks, with MR121 [1]: 512 M⁻¹

NCCOCCOCCNc1nc2c(N)ncnc2n1[C@@H]1O[C@@H]2COP(=O)(O)O[C@H]2[C@H]1O [8-ADOA-cAMP, 8-(8-Amino-3,6-dioxaoctylamino)-cAMP]
association constant, Ks, with MR121 [1]: 475 M⁻¹

NCCCCCCNc1nc2c(N)ncnc2n1[C@@H]1O[C@@H]2COP(=O)(O)O[C@H]2[C@H]1O [8-AHA-cAMP, 8-(6-Aminohexyl)amino-cAMP]
association constant, Ks, with MR121 [1]: 514 M⁻¹
association constant, Ks, with Atto655 [2]: 347 M⁻¹
association constant, Ks, with Atto590 [3]: 282 M⁻¹
solubility [4]: solubility problems

Nc1ncnc2c1nc(SCCCCS)n2[C@@H]1O[C@@H]2COP(=O)(O)O[C@H]2[C@H]1O [8-MBT-cAMP, 8-(4-Mercaptobutylthio)-cAMP]
association constant, Ks, with MR121 [1]: 758 M⁻¹

Nc1ncnc2c1[nH]c(=O)n2C1OC2COP(=O)(O)OC2C1O (stereo not shown) [8-OH-cAMP, 8-Hydroxy-cAMP]
association constant, Ks, with MR121 [1]: 236 M⁻¹

NCCCCCCNc1ncnc2c1ncn2[C@@H]1O[C@@H]2COP(=O)(O)O[C@H]2[C@H]1O [N-6-Aminohexyl-cAMP]
quenching of MR121 (decrease of fluorescence intensity, fluorescence lifetime) [1]: no quenching at all

Nc1ncnc2c1ncn2[C@@H]1O[C@@H]2COP(=O)(O)O[C@H]2[C@H]1O [cAMP, cyclic adenosine monophosphate]
quenching of MR121 (decrease of fluorescence intensity, fluorescence lifetime) [1]: no quenching at all
quenching of MR121 in low concentrations [1]: neither cAMP nor cGMP quenches MR121; also recorded: neither cAMP nor cGMP quench the fluorophore
IC50 ([5]; 5 nM Atto700-2-AHA-cAMP tracer, 5 nM antibody, without cells (FIG. 15), read-out: IC50, dose response curve with Atto700-2-AHA-cAMP tracer): 48 nM
IC50 [5, 8]: 134 nM
IC50 ([5]; 20 nM MR121-2-AHA-cAMP, 40 nM anti-cAMP antibody, 10'000 CHO-K1 cells/well, read-out: IC50, standard curve with cells): 119 nM and 102 nM
IC50 ([5]; 20 nM MR121-2-AHA-cAMP, 40 nM anti-cAMP antibody, without cells (FIG. 8), read-out: IC50, standard curve without cells): 109 nM

Nc1nc2c(ncn2[C@@H]2O[C@@H]3COP(=O)(O)O[C@H]3[C@H]2O)c(=O)[nH]1 [cGMP, cyclic GMP]
quenching of MR121 (decrease of fluorescence intensity, fluorescence lifetime) [1]: quenches MR121 at higher concentrations
quenching of MR121 in low concentrations [1]: neither cAMP nor cGMP quenches MR121; also recorded: neither cAMP nor cGMP quench the fluorophore
concentration at which the nucleotide has quenching capabilities ([1]; fluorophore quenching): ≥ 1 mM
IC50 [5, 8]: 387 nM

C=C[C@@]1(C)CC(=O)[C@]2(O)[C@@]3(C)[C@@H](O)CCC(C)(C)[C@@H]3[C@H](O)[C@H](OC(C)=O)[C@@]2(C)O1 [forskolin]
IC50 [6]: 3700 nM

N[C@@H](Cc1c[nH]c2ccccc12)C(=O)O [tryptophane]
quenching of MR121 (decrease of fluorescence intensity, fluorescence lifetime) [1]: decrease in fluorescence intensity without a change in fluorescence lifetime
association constant Ks with MR121, reported in the literature [7]: ~220 M⁻¹
